Reference: US12680128B2

Tests used:
[1] = target: APOBEC3A (A3A) (Homo sapiens, UniProt P31941); assay: A3A deamination of ssDNA with homogeneously 5-modified cytosines (TA cloning assay); assay type: biochemical; conditions: 8 μM A3A, 37° C., two hours
Experimental: Single stranded DNA with homogenously modified cytosines was obtained by LATE-PCR as previously described (Schutsky et al. Nucleic Acids Res 2017). Modified triphosphates were obtained from TriLink unless otherwise noted here (mC: NEB, peC/pC: synthesized in house, purified by ion-pair chromatography, Ghanty et al. JACS 2018). 1 ng of purified single stranded DNA was incubated with 8 μM A3A at 37° C. for two hours. This 202 base pair amplicon was PCR amplified and TA cloned. Single clones were sent for Sanger Sequencing. After alignment to the parent 202mer substrate (Table 1), C to T conversions were quantified as a percentage of total Cs.
To determine more exact parameters that define the discrimination as a function of sterics at the C5 position, we synthesized or obtained dxCTP analogs, with variable (x) 5-position substituents, and used established approaches to generate long ssDNA substrates with homogeneous C modifications (36). These substrates were reacted with A3A, reamplified and analyzed for deamination by restriction digestion at a specific site.

[2] = system: plasmid DNA CpG sites; assay type: cell-based, E. coli
[3] = system: pUC19 plasmid DNA; assay: pUC19 assay (in vitro transfer of SAM or CxSAM, HpaII/HhaI challenge)
[4] = system: unmethylated phage gDNA CpG sites; assay: Amplicon sequencing of phage gDNA treated with M.MpeI N374K and SAM or CxSAM, then bisulfite or A3A
[5] = system: pMG81-M.MpeI plasmid CCGG sites; conditions: in vivo, plasmid recovered after induced expression
[6] = system: E. coli genomic DNA CCWGG sites; assay: Nucleoside LC-MS/MS of genomic DNA after in vivo expression of Dcm variants; conditions: dam-/dcm- E. coli, gDNA

Chain of APOBEC3A (A3A) (P31941 whole entry): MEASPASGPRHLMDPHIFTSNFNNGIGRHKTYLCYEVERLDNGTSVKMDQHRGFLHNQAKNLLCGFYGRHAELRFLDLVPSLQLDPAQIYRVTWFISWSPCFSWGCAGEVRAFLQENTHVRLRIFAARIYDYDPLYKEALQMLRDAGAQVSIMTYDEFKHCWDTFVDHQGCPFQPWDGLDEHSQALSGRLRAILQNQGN

5-propynyl-dC [5pyC] was tested, and the “deamination by A3A of ssDNA with all Cs replaced by the modified base” value [1] was “undetectable levels of deamination”.

For “M.MpeI N374K: CpG M.MpeI Carboxymethyltransferase with a C-terminal His Tag, SEQ ID NO: 1 (lacks His tag) / SEQ ID NO: 2”, the “change of 5cxmC signal in the added presence of the CmoA plasmid” value [2] was “an increase in 5cxmC signal”, the “in vivo plasmid carboxymethylation (5cxmC) by LC-MS/MS” value [2] was “can be detected and lost” and the “level of 5cxmC modification across overexpression conditions” value [2] was “greatest level of 5cxmC modification”. For the same molecule, the “protection of pUC19 plasmid from restriction digestion” value ([3]; CxSAM substrate) was “newly gains the ability to transfer CxSAM”, the “protection of pUC19 plasmid from restriction digestion” value ([3]; SAM substrate) was “transfers SAM less efficiently than the WT enzyme” and the “DNA newly resistant to A3A deamination” value ([4]; CxSAM, A3A deamination) was ~ 50%. The “DNA modified as 5cxmC (cytosine calls at CpGs after bisulfite)” value ([4]; CxSAM, bisulfite deamination) was ~ 50%, the “DNA newly modified to be 5mC (cytosine calls at CpGs after bisulfite)” value ([4]; SAM, bisulfite deamination) was ~ 60% and the “HpaII and MspI digestion pattern of encoding plasmid” value [5] was “faint ~2 kB band resistant to MspI digestion”.

B1: Dcm N436K: CCWGG Dcm Carboxymethyltransferase with a C-terminal His Tag, SEQ ID NO: 3 / SEQ ID NO: 4 (protein)
chain: MQENISVTDSYSTGNAAQAMLEKLLQIYDVKTLVAQLNGVGENHWSAAILKRALANDSAWHRLSEKEFAHLQTLLPKPPAHHPHYAFRFIDLFAGIGGIRRGFESIGGQCVFTSEWNKHAVRTYKANHYCDPATHHFNEDIRDITLSHKEGVSDEAAAEHIRQHIPEHDVLLAGFPCQPFSLAGVSKKNSLGRAHGFACDTQGTLFFDVVRIIDARRPAMFVLENVKNLKSHDQGKTFRIIMQTLDELGYDVADAEDNGPDDPKIIDGKHFLPQHRERIVLVGFRRDLNLKADFTLRDISECFPAQRVTLAQLLDPMVEAKYILTPVLWKYLYRYAKKHQARGNGFGYGMVYPNNPQSVTRTLSARYYKDGAEILIDRGWDMATGEKDFDDPLNQQHRPRRLTPRECARLMGFEAPGEAKFRIPVSDTQAYRQFGKSVVVPVFAAVAKLLEPKIKQAVALRQQEAQHGRRSRHHHHHH
modifications: C-terminal His tag; Dcm N436K with His tag
B1 was tested, and the “CCWGG sites carboxymethylated (5cxmC relative to total CCWGGs)” value [6] was over 1.5%, the “formation of 5cxmC in the native E. coli genome” value [6] was “could catalyze the formation of 5cxmC” and the “methylation of cytosine (detection of 5mC)” value [6] was “could methylate cytosine”.

B2: WT Dcm: E. coli's naturally occurring DNA Cytosine Methyltransferase (Dcm) (protein, UniProt P0AED9 1-472, looked up)
DNA-cytosine methyltransferase: MQENISVTDSYSTGNAAQAMLEKLLQIYDVKTLVAQLNGVGENHWSAAILKRALANDSAWHRLSEKEFAHLQTLLPKPPAHHPHYAFRFIDLFAGIGGIRRGFESIGGQCVFTSEWNKHAVRTYKANHYCDPATHHFNEDIRDITLSHKEGVSDEAAAEHIRQHIPEHDVLLAGFPCQPFSLAGVSKKNSLGRAHGFACDTQGTLFFDVVRIIDARRPAMFVLENVKNLKSHDQGKTFRIIMQTLDELGYDVADAEDNGPDDPKIIDGKHFLPQHRERIVLVGFRRDLNLKADFTLRDISECFPAQRVTLAQLLDPMVEAKYILTPVLWKYLYRYAKKHQARGNGFGYGMVYPNNPQSVTRTLSARYYKDGAEILIDRGWDMATGEKDFDDPLNQQHRPRRLTPRECARLMGFEAPGEAKFRIPVSDTQAYRQFGNSVVVPVFAAVAKLLEPKIKQAVALRQQEAQHGRRSR
With B2 the “formation of 5cxmC in the native E. coli genome” value [6] was “not” and the “methylation of cytosine (detection of 5mC)” value [6] was “could methylate cytosine”.
